For the experiment, the system named is L1210. Nature of the experiment: In vitro inhibition of L1210 mouse leukemia cell proliferation. Format: functional. Particulars: read-out: ID50 (the source's name).
For the molecule `COc1cc(OC)c2c(c1)C(=O)c1cc(CN(CCO)CCO)cc(OC)c1C2=O`, the IC50 is above 27.6 µM.
In the case of `COc1cc(O)c2c(c1)C(=O)c1cc(CN(CCCl)CCCl)cc(O)c1C2=O` it was 0.023 µM; in that of `CCN(CC)Cc1cc(OC)c2c(c1)C(=O)c1cccc(O)c1C2=O`, 11.9 µM; in that of `COc1cc(OC)c2c(c1)C(=O)c1cc(CN(CCCl)CCCl)cc(O)c1C2=O`, 1.75 µM.
In the case of `COc1cccc2c1C(=O)c1c(OC)cc(CN(CCCl)CCCl)cc1C2=O` it was 12.5 µM; in that of `COc1cccc2c1C(=O)c1c(OC)cc(CN(CCO)CCO)cc1C2=O`, above 50 µM; in that of `COc1cccc2c1C(=O)c1c(O)cc(CN(CCO)CCO)cc1C2=O`, 23.4 µM.
As for `O=C1c2cccc(O)c2C(=O)c2c(O)cc(CN(CCO)CCO)cc21`, the figure is 5.92 µM; as for `Cc1cc(O)c2c(c1)C(=O)c1cccc(O)c1C2=O` [CHRYSOPHANOL], above 393 µM; as for `Cc1cc(O)c2c(c1)C(=O)c1cc(O)cc(O)c1C2=O` [EMODIN], 13.3 µM.
With `CCN(CC)Cc1cc(OC)c2c(c1)C(=O)c1cc(OC)cc(OC)c1C2=O`, the IC50 is 6.91 µM.
`CCN(CC)Cc1cc(OC)c2c(c1)C(=O)c1cccc(OC)c1C2=O`: the IC50 came to 128 µM.
Turning to `O=C1c2cccc(O)c2C(=O)c2c(O)cc(CN(CCCl)CCCl)cc21`, the IC50 is 0.13 µM.
In the case of `COc1cc(CN(CCCl)CCCl)cc2c1C(=O)c1c(O)cccc1C2=O` it was 1.4 µM; in that of `COc1cc(OC)c2c(c1)C(=O)c1cc(CN(CCCl)CCCl)cc(OC)c1C2=O`, 2.66 µM.
In the case of `COc1cc(O)c2c(c1)C(=O)c1cc(CN(CCO)CCO)cc(O)c1C2=O` it was 13.7 µM; in that of `CCN(CC)Cc1cc(O)c2c(c1)C(=O)c1cccc(O)c1C2=O`, 2.75 µM; in that of `CCN(CC)Cc1cc(O)c2c(c1)C(=O)c1cc(OC)cc(O)c1C2=O`, 1.16 µM.

The values are drawn from ChEMBL document CHEMBL1124021, “Novel type of potential anticancer agents derived from chrysophanol and emodin. Some structure-activity relationship studies” (1988).
